# Active and inactive are the calls of the source. The rule behind the calls is not given here.
# Key:
# [1] = biological target: Exportin-1 (Saccharomyces cerevisiae) (UniProt P30822); experiment: Inhibition of GST-NES MVM binding to yeast CRM1 at 20 uM by pull down assay
# HeLa [2] = experiment: Anti-cancer activity against human HeLa cells assessed as cell viability at 20 uM incubated for 2 hrs by EdU incorporation based assay; format: functional
# Saccharomyces cerevisiae = experiment: Inhibition of NES binding to yeast CRM1-T539 mutant in absence of RanGTP at 20 uM by pull down assay
# PANC-1 = experiment: Anti-cancer activity against human PANC-1 cells assessed as cell survival at 10 uM for 72 hrs replaced with compound containing fresh culture medium every 12 hrs by Sulforhodamine B assay; format: functional, cell-based
# HeLa [3] = experiment: Anti-cancer activity against human HeLa cells transfected with hCRM1-C528T/F572Y dual mutant assessed as cell survival at 10 uM for 72 hrs replaced with compound containing fresh culture medium every 12 hrs by Sulforhodamine B assay; format: functional, cell-based
# HCT-116 = experiment: Anti-cancer activity against human HCT-116 cells assessed as cell survival at 10 uM for 72 hrs replaced with compound containing fresh culture medium every 12 hrs by Sulforhodamine B assay; format: functional, cell-based
# A2780 [4] = experiment: Induction of apoptosis in human A2780 cells assessed as early apoptotic cells at 10 uM replaced with compound containing fresh culture medium every 12 hrs measured for 72 hrs by Annexin V FITC/propidium iodide staining based flow cytometric analysis (reference value: 3.67%); format: functional
# A549 [5] = experiment: Induction of apoptosis in human A549 cells assessed as cell death at 1 to 10 uM treated for 12 hrs by Annexin V FITC/propidium iodide staining based flow cytometric analysis; format: functional; details: dose 1-10 µM
# A549 [6] = experiment: Anti-cancer activity against human A549 cells assessed as cell survival at 10 uM for 72 hrs replaced with compound containing fresh culture medium every 12 hrs by Sulforhodamine B assay; format: functional, cell-based
# A2780 [7] = experiment: Induction of apoptosis in human A2780 cells assessed as viable cells at 1 uM replaced with compound containing fresh culture medium every 12 hrs measured for 72 hrs by Annexin V FITC/propidium iodide staining based flow cytometric analysis (reference value: 93.97%); format: functional; details: read-out: Activity
# A2780 [8] = experiment: Induction of apoptosis in human A2780 cells assessed as late apoptotic cells at 1 uM replaced with compound containing fresh culture medium every 12 hrs measured for 72 hrs by Annexin V FITC/propidium iodide staining based flow cytometric analysis (reference value: 1.35%); format: functional
# HeLa [9] = experiment: Induction of apoptosis in human HeLa cells assessed as cell death at 1 to 10 uM treated for 12 hrs by Annexin V FITC/propidium iodide staining based flow cytometric analysis; format: functional; details: dose 1-10 µM
# HeLa [10] = experiment: Inhibition of cellular nuclear export in human HeLa cells transfected with hCRM1-C528T/K568A dual mutant at 10 uM incubated for 72 hrs replaced with compound containing fresh culture medium every 12 hrs by Sulforhodamine B assay; format: functional, cell-based
# HGC-27 = experiment: Anti-cancer activity against human HGC-27 cells assessed as cell survival at 10 uM for 72 hrs replaced with compound containing fresh culture medium every 12 hrs by Sulforhodamine B assay; format: functional, cell-based
# Exportin-1 [11] = biological target: T1, Exportin-1 (Homo sapiens, UniProt O14980); experiment: Inhibition of MBP-NES PKI binding to human CRM1 in presence RanGTP at 20 uM by pull down assay
# T1 sequence (O14980 whole entry): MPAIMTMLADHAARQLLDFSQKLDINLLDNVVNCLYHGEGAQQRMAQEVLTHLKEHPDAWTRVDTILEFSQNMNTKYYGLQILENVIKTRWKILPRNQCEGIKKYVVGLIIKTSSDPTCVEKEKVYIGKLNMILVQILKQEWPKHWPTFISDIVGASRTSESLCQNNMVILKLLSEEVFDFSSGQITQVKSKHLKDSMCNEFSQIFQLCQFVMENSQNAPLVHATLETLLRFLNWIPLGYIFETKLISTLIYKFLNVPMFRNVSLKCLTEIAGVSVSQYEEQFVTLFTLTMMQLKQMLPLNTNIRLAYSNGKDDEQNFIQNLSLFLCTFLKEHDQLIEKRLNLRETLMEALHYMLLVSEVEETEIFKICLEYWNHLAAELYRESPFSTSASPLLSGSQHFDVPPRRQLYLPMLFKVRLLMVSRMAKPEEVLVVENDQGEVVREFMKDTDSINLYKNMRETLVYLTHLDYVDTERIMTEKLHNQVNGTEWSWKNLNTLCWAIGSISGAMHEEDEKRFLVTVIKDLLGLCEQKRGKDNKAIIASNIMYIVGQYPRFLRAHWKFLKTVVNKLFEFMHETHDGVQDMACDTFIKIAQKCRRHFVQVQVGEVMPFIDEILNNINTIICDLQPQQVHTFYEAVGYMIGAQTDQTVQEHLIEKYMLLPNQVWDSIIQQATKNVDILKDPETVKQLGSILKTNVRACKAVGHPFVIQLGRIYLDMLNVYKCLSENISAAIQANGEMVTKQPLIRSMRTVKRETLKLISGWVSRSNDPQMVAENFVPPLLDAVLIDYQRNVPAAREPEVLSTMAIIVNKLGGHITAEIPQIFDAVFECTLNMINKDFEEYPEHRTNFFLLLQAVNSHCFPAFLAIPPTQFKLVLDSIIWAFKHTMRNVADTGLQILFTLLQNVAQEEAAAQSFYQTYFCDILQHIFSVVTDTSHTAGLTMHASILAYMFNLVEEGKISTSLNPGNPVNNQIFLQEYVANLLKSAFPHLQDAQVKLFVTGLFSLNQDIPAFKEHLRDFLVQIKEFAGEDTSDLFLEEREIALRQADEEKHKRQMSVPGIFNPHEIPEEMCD
# A549 [12] = experiment: Anti-cancer activity against human A549 cells assessed as inhibition of cell viability measured for 72 hrs replaced with compound containing fresh culture medium every 12 hrs by Sulforhodamine B assay; format: functional, cell-based
# HeLa [13] = experiment: Inhibition of cellular nuclear export in human HeLa cells transfected with hCRM1- C528T/F572Y dual mutant at 10 uM incubated for 72 hrs replaced with compound containing fresh culture medium every 12 hrs by Sulforhodamine B assay; format: functional, cell-based
# MGC-803 = experiment: Anti-cancer activity against human MGC-803 cells assessed as cell survival at 10 uM for 72 hrs replaced with compound containing fresh culture medium every 12 hrs by Sulforhodamine B assay; format: functional, cell-based
# [14] = (§1) Inhibition of cellular nuclear export in human HeLa cells transfected with pmCherry-C1 Cargo plasmid assessed as cytoplasmic cargo level incubated for 12 hrs by confocal microscopic analysis; format: functional, cell-based
# HeLa [15] = experiment: as §1; format: functional, cell-based; details: dose 1-10 µM
# A2780 [16] = experiment: Induction of apoptosis in human A2780 cells assessed as viable cells at 10 uM replaced with compound containing fresh culture medium every 12 hrs measured for 72 hrs by Annexin V FITC/propidium iodide staining based flow cytometric analysis (reference value: 93.97%); format: functional; details: read-out: Activity
# HeLa [17] = experiment: Cytotoxicity against human HeLa cells transfected with hCRM1-C528S-mutant assessed as cell viability measured for 72 hrs replaced with compound containing fresh culture medium every 12 hrs by Sulforhodamine B assay; format: functional, cell-based
# HeLa [18] = experiment: Anti-cancer activity against human HeLa cells transfected with hCRM1-C528T/K568A dual mutant assessed as measuring cell survival at 10 uM for 72 hrs replaced with compound containing fresh culture medium every 12 hrs by Sulforhodamine B assay; format: functional, cell-based
# HeLa [19] = experiment: Anti-cancer activity against human HeLa cells assessed as inhibition of cell viability measured for 72 hrs replaced with compound containing fresh culture medium every 12 hrs by Sulforhodamine B assay; format: functional, cell-based
# HeLa [20] = experiment: Anti-cancer activity against human HeLa cells assessed as inhibition of DNA synthesis at 1 to 10 uM incubated for 2 hrs by EdU incorporation based assay; format: functional, cell-based; details: dose 1-10 µM
# A2780 [21] = experiment: Induction of apoptosis in human A2780 cells assessed as early apoptotic cells at 5 uM replaced with compound containing fresh culture medium every 12 hrs measured for 72 hrs by Annexin V FITC/propidium iodide staining based flow cytometric analysis (reference value: 3.67%); format: functional
# A2780 [22] = experiment: Induction of apoptosis in human A2780 cells assessed as necrotic cells at 1 uM replaced with compound containing fresh culture medium every 12 hrs measured for 72 hrs by Annexin V FITC/propidium iodide staining based flow cytometric analysis (reference value: 1%); format: functional
# Huh-7 = experiment: Anti-cancer activity against human HuH-7 cells assessed as cell survival at 10 uM for 72 hrs replaced with compound containing fresh culture medium every 12 hrs by Sulforhodamine B assay; format: functional, cell-based
# HeLa [23] = experiment: Inhibition of cellular nuclear export of endogenous cargo RanBP1 in human HeLa cells transfected with pmCherry-C1 plasmid at 1 to 10 uM incubated for 12 hrs by confocal microscope analysis; format: functional, cell-based; details: dose 1-10 µM
# HepG2 [24] = experiment: Anti-cancer activity against human HepG2 cells assessed as cell survival at 10 uM for 72 hrs replaced with compound containing fresh culture medium every 12 hrs by Sulforhodamine B assay; format: functional, cell-based
# Exportin-1 [25] = biological target: T1, Exportin-1; experiment: Binding affinity to wild type human CRM1 transfected HeLa cells assessed as inhibition of nuclear export of cargoes at 10 uM incubated for 12 hrs by confocal microscope analysis; format: cell-based
# A2780 [26] = experiment: Anti-cancer activity against human A2780 cells assessed as fold reduction in DNA synthesis rate at 10 uM incubated for 2 hrs by EdU incorporation based assay; format: functional
# HeLa [27] = experiment: Anti-cancer activity against human HeLa cells assessed as cell survival at 10 uM for 72 hrs replaced with compound containing fresh culture medium every 12 hrs by Sulforhodamine B assay; format: functional, cell-based
# A2780 [28] = experiment: Anti-cancer activity against human A2780 cells assessed as cell survival at 10 uM for 72 hrs replaced with compound containing fresh culture medium every 12 hrs by Sulforhodamine B assay; format: functional, cell-based
# A2780 [29] = experiment: Induction of apoptosis in human A2780 cells assessed as late apoptotic cells at 10 uM replaced with compound containing fresh culture medium every 12 hrs measured for 72 hrs by Annexin V FITC/propidium iodide staining based flow cytometric analysis (reference value: 1.35%); format: functional
# HeLa [30] = experiment: Binding affinity to human CRM1 C528S mutant transfected HeLa cells assessed as inhibition of nuclear export of cargoes at 10 uM incubated for 12 hrs by confocal microscope analysis; format: cell-based
# A2780 [31] = experiment: Anti-cancer activity against human A2780 cells assessed as fold increase Annexin V positive cells at 10 uM incubated for 2 hrs by EdU incorporation based assay; format: functional
# A549 [32] = experiment: Anti-cancer activity against human A549 cells assessed as inhibition of DNA synthesis incubated for 2 hrs by EdU incorporation based assay; format: functional, cell-based; details: dose 1-10 µM
# Exportin-1 [33] = biological target: T1, Exportin-1; experiment: Binding affinity to Cy3 dye-labelled human CRM1 assessed as dissociation constant in absence of RanGTP at 10 uM incubated for 1 hr by micro-scale thermophoresis analysis
# A2780 [34] = experiment: Induction of apoptosis in human A2780 cells assessed as early apoptotic cells at 1 uM replaced with compound containing fresh culture medium every 12 hrs measured for 72 hrs by Annexin V FITC/propidium iodide staining based flow cytometric analysis (reference value: 3.67%); format: functional
# A2780 [35] = experiment: Induction of apoptosis in human A2780 cells assessed as necrotic cells at 5 uM replaced with compound containing fresh culture medium every 12 hrs measured for 72 hrs by Annexin V FITC/propidium iodide staining based flow cytometric analysis (reference value: 1%); format: functional
# SW48 = experiment: Anti-cancer activity against human SW48 cells assessed as cell survival at 10 uM for 72 hrs replaced with compound containing fresh culture medium every 12 hrs by Sulforhodamine B assay; format: functional, cell-based
# HepG2 [36] = experiment: Anti-cancer activity against human HepG2 cells assessed as inhibition of cell viability measured for 72 hrs replaced with compound containing fresh culture medium every 12 hrs by Sulforhodamine B assay; format: functional, cell-based
# A2780 [37] = experiment: Anti-cancer activity against human A2780 cells assessed as inhibition of cell viability measured for 72 hrs replaced with compound containing fresh culture medium every 12 hrs by Sulforhodamine B assay; format: functional, cell-based
# HeLa [38] = experiment: Inhibition of cellular nuclear export of transfected cargo in human HeLa cells transfected with pmCherry-C1 plasmid at 1 to 10 uM incubated for 12 hrs by confocal microscope analysis; format: functional, cell-based; details: dose 1-10 µM
# A2780 [39] = experiment: Induction of apoptosis in human A2780 cells assessed as late apoptotic cells at 5 uM replaced with compound containing fresh culture medium every 12 hrs measured for 72 hrs by Annexin V FITC/propidium iodide staining based flow cytometric analysis (reference value: 1.35%); format: functional
# A2780 [40] = experiment: Induction of apoptosis in human A2780 cells assessed as necrotic cells at 10 uM replaced with compound containing fresh culture medium every 12 hrs measured for 72 hrs by Annexin V FITC/propidium iodide staining based flow cytometric analysis (reference value: 1%); format: functional
# A2780 [41] = experiment: Induction of apoptosis in human A2780 cells assessed as viable cells at 5 uM replaced with compound containing fresh culture medium every 12 hrs measured for 72 hrs by Annexin V FITC/propidium iodide staining based flow cytometric analysis (reference value: 93.97%); format: functional; details: read-out: Activity
structure (smiles),measurement,setting,value
[O-][S+](Cc1cc(Br)no1)c1cc(C(F)(F)F)cc(C(F)(F)F)c1 (stereo not given),inhibition,[1],inactive
same,Activity,HeLa [2],inactive
[O-][S+](/C=C/CBr)c1cc(C(F)(F)F)cc(C(F)(F)F)c1 (stereo not given),inhibition,[1],Active
same,inhibition,Saccharomyces cerevisiae,Active
same,Activity,HeLa [2],inactive
CC(C)CCNc1cc(C[S+]([O-])c2cc(C(F)(F)F)cc(C(F)(F)F)c2)ccn1 (stereo not given),inhibition,[1],inactive
same,Activity,HeLa [2],inactive
FC(F)(F)c1cc(S/C=C/CBr)cc(C(F)(F)F)c1,inhibition,[1],Active
same,inhibition,Saccharomyces cerevisiae,Active
same,Activity,HeLa [2],inactive
FC(F)(F)c1cc(SCc2ccnc(Cl)c2)cc(C(F)(F)F)c1,inhibition,[1],inactive
same,Activity,HeLa [2],inactive
CC(C)CCNC/C=C/[S+]([O-])c1cc(C(F)(F)F)cc(C(F)(F)F)c1 (stereo not given),inhibition,[1],Active
same,Activity,PANC-1,Active
same,IC50,HeLa [3],2.6 µM
same,Activity,HCT-116,Active
same,Activity,A2780 [4],24.26%
same,Activity,A549 [5],Dose-Dependent Effect
same,Activity,A549 [6],Active
same,viability at 1 µM,A2780 [7],92.8%
same,Activity,A2780 [8],1.33%
same,Activity,HeLa [9],Dose-Dependent Effect
same,inhibition,HeLa [10],inactive
same,Activity,HGC-27,Active
same,inhibition,Exportin-1 [11],Active
same,IC50,A549 [12],6.8 µM
same,inhibition,HeLa [13],inactive
same,Activity,MGC-803,Active
same,EC50,[14],3.2 µM
same,inhibition,HeLa [15],Dose-Dependent Effect
same,viability at 10 µM,A2780 [16],64.4%
same,IC50,HeLa [17],5.9 µM
same,IC50,HeLa [18],2 µM
same,IC50,HeLa [19],3.8 µM
same,Activity,HeLa [20],Dose-Dependent Effect
same,Activity,A2780 [21],15.55%
same,Activity,A2780 [22],1.1%
same,Activity,Huh-7,Active
same,inhibition,HeLa [23],Active
same,Activity,HepG2 [24],Active
same,inhibition,Exportin-1 [25],Active
same,fold change (FC),A2780 [26],5
same,Activity,HeLa [27],Active
same,Activity,A2780 [28],Active
same,Activity,A2780 [29],7.14%
same,inhibition,HeLa [30],Active
same,fold change (FC),A2780 [31],2
same,Activity,A549 [32],Dose-Dependent Effect
same,Kd,Exportin-1 [33],0.024 µM
same,Activity,A2780 [34],4.71%
same,inhibition,Saccharomyces cerevisiae,Active
same,Activity,A2780 [35],1.88%
same,Activity,HeLa [2],Active
same,Activity,SW48,Active
same,IC50,HepG2 [36],2.9 µM
same,IC50,A2780 [37],5 µM
same,inhibition,HeLa [38],Active
same,Activity,A2780 [39],3.29%
same,Activity,A2780 [40],4.19%
same,viability at 5 µM,A2780 [41],79.2%
